Laboratory results: US7199129B2, “Derivatives of morphine-like opioid compounds” (Monash University, priority 2001, dated 2007)
Where “and” joins values, the source holds several entries; their conditions need not be identical. Equal values may be shown once.

Columns and labels:
human κ-opiate receptor = biological target: T1, human κ-opiate receptor (Homo sapiens, UniProt P41145); assay: In vitro opiate receptor radioligand binding assay, κ; conditions: test compound 10 μM
T1 construct: purchased MDS Pharma Services 260210
Protocol: (§1) To characterise the target specificity of the compounds, KRS-5-150 and KRS-6-26 were tested at a concentration of 10 μM for their ability to inhibit the binding of a radioligand to human δ-, κ-, or μ-opiate receptors in vitro using commercially available assays (MDS Pharma Services; assay catalogue numbers 260110, 260210 and 260410 respectively).
(§2) Percentage inhibition of radioligand binding to human opioid receptors in vitro by test compounds (10 μM)

human μ-opiate receptor = biological target: T2, human μ-opiate receptor (Homo sapiens, UniProt P35372); assay: In vitro opiate receptor radioligand binding assay, μ; conditions: test compound 10 μM
T2 construct: purchased MDS Pharma Services 260410
Protocol: as §1, §2

human δ-opiate receptor = biological target: T3, human δ-opiate receptor (Homo sapiens, UniProt P41143); assay: In vitro opiate receptor radioligand binding assay, δ; conditions: test compound 10 μM
T3 construct: purchased MDS Pharma Services 260110
Protocol: as §1, §2

ICR mice [1] = assay: Straub tail behaviour (indicator of CNS activity) and observed signs in test animals
From the text: The Straub test is an indicator of CNS activity.
The tail-flick test is thought to involve central nervous system activity, and therefore provides further confirmation of the Straub tail test.

ICR mice [2] = assay: Phenylquinone-induced writhing model in mice (Example 16); format: in vivo; conditions: IP; for No. of Writhings Individual: individual mice
Protocol: KRS-5-150 was evaluated for possible analgesic activity in the phenylquinone-induced writhing model in mice (Siegmund et al, 1957). A serial 2-fold dosage variance was used in the test, from 128 mg/kg to 1 mg/kg (8 doses in total). Groups of 3 male or female ICR mice weighing 22±2 g were employed. A serial 2-fold dosage variance was used in the test (8 doses in total). Variant doses (1, 2, 4, 8, 16, 32, 64 and 128 mg/kg) of test substances were administered intraperitoneally (IP). A vehicle of 2% Tween 80 in 0.9% NaCl was used for the intraperitoneal injection. The control group received vehicle alone. […] A reduction in the number of writhes by 50 percent or more (≧50%) relative to the vehicle-treated group indicated possible analgesic activity.

ICR mice [3] = assay: Radiant heat-induced tail-flick response assay in mice; format: in vivo; conditions: IP; for % Inhibition (prolongation of tail-flick response time): 30 minutes; for Response Time (Seconds) 30 Mins., Average / Response Time (Seconds) 30 Mins.: 30 minutes after administration; for Response Time (Seconds) 30 Mins. / Response Time (Seconds) 0 Time: individual mice; for Response Time (Seconds) 30 Mins.: cut-off 15 seconds; for Response Time (Seconds) 0 Time / Response Time (Seconds) 0 Time, Average: pre-treatment (0 minutes)
Protocol: For the tail-flick assay, groups of four male or female ICR mice weighing 22±2 g were used, and the test compound dissolved in 2% Tween 80/0.9% NaCl was administered intraperitoneally. The compound was administered intraperitoneally at 4, 8, 16 or 32 mg/kg, using 2% Tween 80—0.9% NaCl as the vehicle. Controls received vehicle alone. Morphine-HCl at a dose of 10 mg/kg was used as a positive control. At the pre-treatment point (0 minutes) a focused beam of radiant heat was applied to the middle dorsal surface of the tail to elicit a tail-flick response. […] The time required to elicit a pain response was recorded for each animal at 30 minutes following administration of the test compound. A prolongation of 50% or more ≧50% of the time required to elicit tail-flick response indicated possible analgesic activity.

T3 sequence (P41143 whole entry): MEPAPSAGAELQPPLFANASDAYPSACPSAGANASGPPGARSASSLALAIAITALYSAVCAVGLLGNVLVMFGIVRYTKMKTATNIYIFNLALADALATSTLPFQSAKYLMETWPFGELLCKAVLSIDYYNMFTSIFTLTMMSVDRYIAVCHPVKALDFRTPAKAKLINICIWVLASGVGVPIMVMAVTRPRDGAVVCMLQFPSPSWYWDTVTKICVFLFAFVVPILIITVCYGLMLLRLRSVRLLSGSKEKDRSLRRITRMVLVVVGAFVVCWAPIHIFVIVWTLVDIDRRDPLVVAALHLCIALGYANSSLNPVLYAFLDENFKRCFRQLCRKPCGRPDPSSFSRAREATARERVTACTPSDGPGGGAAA
T2 sequence (P35372 whole entry): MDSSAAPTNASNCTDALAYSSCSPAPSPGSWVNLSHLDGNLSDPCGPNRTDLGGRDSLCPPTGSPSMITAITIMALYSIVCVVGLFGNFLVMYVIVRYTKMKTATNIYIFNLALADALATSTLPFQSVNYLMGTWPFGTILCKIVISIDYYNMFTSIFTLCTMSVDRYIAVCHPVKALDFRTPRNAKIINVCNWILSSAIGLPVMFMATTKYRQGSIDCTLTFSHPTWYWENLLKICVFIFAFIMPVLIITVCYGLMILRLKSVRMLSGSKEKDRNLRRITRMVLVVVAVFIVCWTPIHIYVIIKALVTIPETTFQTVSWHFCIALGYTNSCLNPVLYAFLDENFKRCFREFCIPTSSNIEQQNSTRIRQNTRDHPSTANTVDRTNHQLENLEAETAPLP
T1 sequence (P41145 whole entry): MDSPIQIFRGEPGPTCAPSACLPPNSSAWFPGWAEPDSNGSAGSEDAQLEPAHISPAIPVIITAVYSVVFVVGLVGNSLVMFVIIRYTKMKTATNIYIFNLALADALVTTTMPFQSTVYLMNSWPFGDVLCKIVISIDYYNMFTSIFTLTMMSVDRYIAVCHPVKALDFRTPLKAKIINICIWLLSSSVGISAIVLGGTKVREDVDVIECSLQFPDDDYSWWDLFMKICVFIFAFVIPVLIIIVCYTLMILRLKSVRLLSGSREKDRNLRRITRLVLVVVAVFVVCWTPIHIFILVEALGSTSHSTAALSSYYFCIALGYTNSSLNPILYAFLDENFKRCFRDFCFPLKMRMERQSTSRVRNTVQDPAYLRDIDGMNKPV

Oc1ccc2c3c1O[C@H]1[C@@H](O)C=C[C@H]4[C@@H](C2)N(CCCNC(=Nc2ccccc2)Nc2ccccc2)CC[C@@]341 [KRS-5-150, (5α,6α)-7,8 didehydro-4,5-epoxy-17-(N,N′-bisphenylcarboxamidino-3-aminopropyl)morphinan,3,6-diol]
Percentage inhibition of radioligand binding, κ-opiate receptor (human κ-opiate receptor): 79% | Percentage inhibition of radioligand binding, μ-opiate receptor (human μ-opiate receptor): 98% | Percentage inhibition of radioligand binding, δ-opiate receptor (human δ-opiate receptor): 79% | test animals exhibiting an increase in respiratory depth (ICR mice [1]; 128 mg/kg IP, Example 17): 3 of 3 | test animals exhibiting slight anoxia (ICR mice [1]; 128 mg/kg IP, Example 17): 3 of 3 | test animals exhibiting slight tremors (ICR mice [1]; 128 mg/kg IP, Example 17): 3 of 3 | Straub tail behaviour (ICR mice [1]; Example 17 (writhing and tail-flick studies)): None of the mice given KRS-5-150 exhibited Straub tail behaviour | Straub tail behaviour (ICR mice [1]; IP, 2 to 64 mg/kg, Example 16): did not exhibit Straub tail behaviour | % Inhibition (ICR mice [2]; 1 mg/kg, Table 1): 33% | No. of Writhings Average (ICR mice [2]; 1 mg/kg, Table 1): 10 | No. of Writhings Individual (ICR mice [2]; 1 mg/kg, Table 1): 14 and 0 and 16 | % Inhibition (ICR mice [2]; 2 mg/kg, Table 1): 73% | No. of Writhings Average (ICR mice [2]; 2 mg/kg, Table 1): 4 | No. of Writhings Individual (ICR mice [2]; 2 mg/kg, Table 1): 8 and 1 and 4 | % Inhibition (ICR mice [2]; 4 mg/kg, Table 1): 80% | No. of Writhings Average (ICR mice [2]; 4 mg/kg, Table 1): 3 | No. of Writhings Individual (ICR mice [2]; 4 mg/kg, Table 1): 0 and 7 and 3 | % Inhibition (ICR mice [2]; 8 mg/kg, Table 1): 87% | No. of Writhings Average (ICR mice [2]; 8 mg/kg, Table 1): 2 | No. of Writhings Individual (ICR mice [2]; 8 mg/kg, Table 1): 4 and 0 and 2 | % Inhibition (ICR mice [2]; 16 mg/kg, Table 1): 80% | No. of Writhings Average (ICR mice [2]; 16 mg/kg, Table 1): 3 | No. of Writhings Individual (ICR mice [2]; 16 mg/kg, Table 1): 0 and 4 and 5 | % Inhibition (ICR mice [2]; 32 mg/kg, Table 1): 100% | No. of Writhings Average (ICR mice [2]; 32 mg/kg, Table 1): 0 | No. of Writhings Individual (ICR mice [2]; 32 mg/kg, Table 1): 0 (2×) and 1 | % Inhibition (ICR mice [2]; 64 mg/kg, Table 1): 100% | No. of Writhings Average (ICR mice [2]; 64 mg/kg, Table 1): 0 | No. of Writhings Individual (ICR mice [2]; 64 mg/kg, Table 1): 0 | died (animals of group of 3) (ICR mice [2]; 128 mg/kg, Table 1): 2/3 died | No. of Writhings Individual (ICR mice [2]; 128 mg/kg, Table 1): 0 | analgesic activity (≧50% reduction in writhes) (ICR mice [2]; doses of 64, 32, 16, 8, 4 and 2 mg/kg): Significant activity | % Inhibition (prolongation of tail-flick response time) (ICR mice [3]; 4 mg/kg): 5% | Response Time (Seconds) 30 Mins., Average (ICR mice [3]; 4 mg/kg): 6.6 s | Response Time (Seconds) 30 Mins. (ICR mice [3]; 4 mg/kg, 4 mg/kg): 6.2 Seconds (2×) and 6.4 Seconds and 7.4 Seconds | Response Time (Seconds) 0 Time (ICR mice [3]; 4 mg/kg): 6.3 Seconds (2×) and 6.4 Seconds and 6.2 Seconds | Response Time (Seconds) 0 Time, Average (ICR mice [3]; 4 mg/kg): 6.3 s | % Inhibition (prolongation of tail-flick response time) (ICR mice [3]; 8 mg/kg): 3% | Response Time (Seconds) 30 Mins., Average (ICR mice [3]; 8 mg/kg): 6.6 s | Response Time (Seconds) 30 Mins. (ICR mice [3]; 8 mg/kg, 8 mg/kg): 6.4 s and 6.8 s and 6.5 s and 6.7 s | Response Time (Seconds) 0 Time (ICR mice [3]; 8 mg/kg): 6.3 Seconds (2×) and 6.5 Seconds and 6.4 Seconds | Response Time (Seconds) 0 Time, Average (ICR mice [3]; 8 mg/kg): 6.4 s | % Inhibition (prolongation of tail-flick response time) (ICR mice [3]; 16 mg/kg): 2% | Response Time (Seconds) 30 Mins., Average (ICR mice [3]; 16 mg/kg): 6.4 s | Response Time (Seconds) 30 Mins. (ICR mice [3]; 16 mg/kg, 16 mg/kg): 6.3 s and 6.5 s and 6.2 s and 6.4 s | Response Time (Seconds) 0 Time (ICR mice [3]; 16 mg/kg): 6.2 Seconds (2×) and 6.3 Seconds and 6.4 Seconds | Response Time (Seconds) 0 Time, Average (ICR mice [3]; 16 mg/kg): 6.3 s | % Inhibition (prolongation of tail-flick response time) (ICR mice [3]; 32 mg/kg): 19% | Response Time (Seconds) 30 Mins., Average (ICR mice [3]; 32 mg/kg): 7.6 s | Response Time (Seconds) 30 Mins. (ICR mice [3]; 32 mg/kg, 32 mg/kg): 6.7 s and 8.7 s and 6.5 s and 8.4 s | Response Time (Seconds) 0 Time (ICR mice [3]; 32 mg/kg): 6.5 Seconds and 6.3 Seconds (2×) and 6.4 Seconds | Response Time (Seconds) 0 Time, Average (ICR mice [3]; 32 mg/kg): 6.4 s | analgesic activity in tail-flick assay (≧50% prolongation) (ICR mice [3]; 4, 8, 16 and 32 mg/kg): none of the four doses used showed significant activity
